Patent US20050180991A1, “Hypotensive agent and food” (priority 2004, published 2005)

Tests used:
[1] = Body weight of SHR rats during daily oral dosing; assay type: in vivo, rat; conditions: n=10, oral once daily, CM6271 300 mg/kg, hydralazine 5 mg/kg
Description: Figures in Table 1 represent mean±SD (standard deviation).

[2] = tested on: SHR (spontaneously hypertensive rat); experiment: Systolic blood pressure by the tail cuff method in SHR rats; assay type: in vivo; conditions: mean±SD; for Blood pressure (mmHg) Before dosing: n=10, baseline in acclimatization period; for Blood pressure (mmHg) 2nd dosing week: n=10, oral once daily, CM6271 300 mg/kg, hydralazine 5 mg/kg, 23 to 25 hours after dosing in 2nd dosing week, *p<0.05, **p<0.01 vs. control
Method: (§1) For statistical analysis of blood pressure, pulse rate and body weight data, Dunnett test was used to make intergroup comparisons, and the level of significance was less than 5% (p<0.05) and less than 1% (p<0.01).
(§2) Systolic blood pressure and pulse rate were measured in all animals by the tail cuff method using an automated noninvasive sphygmomanometer (BP-98A, Softron Co., Ltd.) once during the acclimatization period and 23 to 25 hours after dosing in the second dosing week. Figures in Table 2 represent mean±SD.

[3] = tested on: SHR (spontaneously hypertensive rat); experiment: Pulse rate by the tail cuff method in SHR rats; assay type: in vivo; conditions: mean±SD; for Pulse rate (bpm) Before dosing: n=10, baseline in acclimatization period; for Pulse rate (bpm) 2nd dosing week: n=10, oral once daily, CM6271 300 mg/kg, hydralazine 5 mg/kg, 23 to 25 hours after dosing in 2nd dosing week
Method: as §1, §2

[4] = tested on: SHR (spontaneously hypertensive rat); conditions: SHR rats, observed once daily at dosing

NNc1nncc2ccccc12 [Hydralazine, hydralazine]
Body weight (g) Day 15 ([1]; Day 15, mean±SD): 261.5 ± 13.7 g | Body weight (g) Day 22 ([1]; Day 22, mean±SD): 276.1 ± 12.8 g | Blood pressure (mmHg) Before dosing [2]: 164.9 ± 8.8 mmHg | Blood pressure (mmHg) Before dosing ([2]; listed as hydralazine): 164.9 mmHg | Blood pressure (mmHg) 2nd dosing week [2]: 138.4 ± 12.1** mmHg | Blood pressure (mmHg) 2nd dosing week ([2]; listed as hydralazine): 138.4 mmHg | Pulse rate (bpm) Before dosing [3]: 401.3 ± 19.4 bpm | Pulse rate (bpm) Before dosing ([3]; listed as hydralazine): 401.3 bpm | Pulse rate (bpm) 2nd dosing week [3]: 423.6 ± 31.9 bpm | Pulse rate (bpm) 2nd dosing week ([3]; listed as hydralazine): 423.6 bpm | General observations [4]: Soft stools were observed in some animals
